# From paper PMC10107917 (ACS Medicinal Chemistry Letters, 2023)
# Read-outs that look alike come from different tables or passages of the source. Square brackets hold non-standard residues; d marks the D form. * marks the point of attachment. AMC = Cc1cc(=O)oc2cc(N*)ccc12; pGlu = O=C1CC[C@@H](C(=O)O)N1
# What was measured:
# [1] = target: T1, human recombinant furin (Homo sapiens, UniProt P09958); type: biochemical
# T1 construct: Soluble human recombinant furin was kindly gifted; gift of Dr Anna Kwiatkowska (group of Prof. Robert Day, Université de Sherbrooke)
# Method: Initially, the activities of the furin inhibitors were screened at three concentrations, i.e., 2.4, 24.0, and 77.0 nM (Figure 4). For selected peptides 3, 5, and 6 and the reference FI, the inhibitory constants (Ki) were calculated (Table 2). Except for the bicyclic peptide 4, all of the inhibitors almost completely abolished the enzyme activity at the highest tested concentration. Peptide 4 was explicitly the weakest inhibitor in the series, also when compared with its monocyclic disulfide-bridged counterpart 1. When the inhibitory activities were analyzed at the lowest tested concentration (2.4 nM), three peptides (3, 5, and 6) reduced the furin activity to less than 50% of its initial noninhibited activity. All of them have an additional basic amino acid at their N-termini (in MD simulations this is depicted as a residue with number “0”). […] Such close inhibitory potency was not observed in the case of an analogous pair, i.e., 2 and 5. […] The two disulfide-bridged peptides, FI and 1, differ only at the P4 position, having Lys and Arg, respectively. […]
# The IC50 values (inhibitor concentrations giving 50% inhibition of enzyme activity) were calculated from plots of enzyme activity (% of control sample) versus the inhibitor’s concentration using a four-parameter fit model (GraFit 5.0.12 Erithacus Software Ltd.). The IC50 values were determined from triplicate measurements with at least seven different inhibitor concentrations. The K i values […] were calculated using the Cheng-Prusoff equation, assuming the competitive mode of inhibition, according to the following relationship: IC50 = K i(1+S/Km). All measurements were performed using a Fluostar Omega microplate reader (BMG Labtech, Germany) and 96-well black plates (BRAND, Germany). Recombinant human matriptase-1/ST14 catalytic domain was purchased from R&D Systems, USA. Recombinant human matriptase-2 was obtained from Enzo Life Sciences, Switzerland.
# Soluble human recombinant furin was kindly gifted by Dr Anna Kwiatkowska (group of Prof. Robert Day from Université de Sherbrooke).4
# The following assay buffers were used: […] (matriptase-1 and matriptase-2), pH 7.5 100 mM HEPES with 1 mM CaCl 2 and 1.8 mg/mL BSA (furin). The substrates used in the assays were as follows: for matriptase-1 and matriptase-2 Boc-Gln-Ala-Arg-AMC (Pepta Nova, Germany) in final concentration of 5 µM, for furin […] (Pepta Nova, Germany) in final concentration of 20 µM. Enzymes concentrations were as follows: 1.25 ng/mL of matriptase-1, 1.51 U/mL for matriptase-2, and 1.1 nM for furin. In the case of matriptase-1 and matripase-2 concentrations were calculated according to information provided by the suppliers.
# In short, the tested compounds were added to the appropriate protease in different concentrations and incubated in an assay buffer at 37 °C for 30 min. After this time, a solution of appropriate substrate was added. Reactions were monitored for at least 40 min at 37 °C. The final volume in each well was 200 µL for matriptases and 100 µL for furin. Measurements were carried out using excitation and emission wavelengths of 380 nm and 450 nm. The percentage inhibition of an enzyme was calculated relative to the control sample without an inhibitor. The K m value for furin substrate was determined by incubating the enzyme with its substrate in various concentrations as recommended.5 Plots of the substrate concentration versus the initial reaction velocity were analyzed according to Michaelis-Menten equation using GraFit 5.0.12 Erithacus Software Ltd. A double reciprocal (Lineweaver-Burk) plot was used to determine the Michaelis constant K m value. K m value determined for furin was 1.90 µM.
# (§1) Total furin-like enzyme inhibition/activity in PANC-1 cell lysates
# Cell line and cell culture. The pancreatic cancer cell line, PANC-1, was obtained from the American Type Culture Collection, ATCC (Manassas, USA). […]
# [2] = target: T1, human recombinant furin; test: Screening (iterative deconvolution) of peptide sublibraries for furin inhibition; type: biochemical; settings: Figure 3D1
# Method: Each of the sublibraries was screened for inhibitory activity against human recombinant furin in the presence of the fluorogenic substrate Pyr-Arg-Thr-Lys-Arg-AMC (where Pyr is pyroglutamic acid and AMC is 7-amino-4-methylcoumarin). Initially, each sublibrary was screened in a 2.2 ng/mL stock solution (Figure 3).
# Phe(4-NH-Boc) we experienced difficulties with complete coupling. So we performed reactions by applying microwave heating (50 °C) which improved the process. The same procedures were applied during the whole library synthesis. 10% of mass of each portion was removed for deconvolution.
# 2. After that, both portions were combined and divided into 10 (j) equal portions, each of which was acylated individually with different protected amino acid. 10% of the mass of each portion was removed for deconvolution.
# 3. After mixing all j portions of peptidyl–resin, Cys protected derivative was attached.
# 4. […]
# 6. Sublibraries with fixed best hits in Xaa (l-j) were subsequently synthesized (using previously put aside 10% of synthesized sublibraries) and their inhibitory activity was determined until the position Xi. […] The inhibitory activity of sublibraries against furin were measured using Pyr-Arg-Thr-Lys-Arg-AMC fluorogenic substrate (Pepta Nova). The experiments were performed on 96-well plates (BRAND, Germany) and microplate reader FluoStar Omega (BMG Labtech, Germany). […]
# [3] = PANC-1 cell lysate; settings: human, 37 °C
# [4] = tested on: furin-like enzyme activity in PANC-1 cell lysate; test: Total furin-like enzyme activity in PANC-1 cell lysate; type: biochemical, human; settings: peptide 100 µM
# Method: The presence of furin in PANC-1 cell lysate was indicated by analyzing the release of fluorescent AMC product after incubation of furin substrate (Pyr-Arg-Thr-Lys-Arg-AMC) in the lysate, as described elsewhere.[31],[32] However, we are aware that this assay tends to reflect total furin-like enzyme activity rather than the activity of furin exclusively. This is the case because the liberation of AMC may be catalyzed not only by furin but also by an enzyme with a similar substrate preference, such as other PCs.[31] […] For comparison, the effect of a strong trypsin inhibitor, […] SFTI-1, on furin-like activity was insignificant under the same assay conditions. […] It is likely that SFTI-1 may provide protection for furin inhibitors from degradation by trypsin-like proteases. […]
# µL for matriptases and 100 µL for furin. Measurements were carried out using excitation and emission wavelengths of 380 nm and 450 nm. The percentage inhibition of an enzyme was calculated relative to the control sample without an inhibitor. […]
# as §1
# Cell line and cell culture. The pancreatic cancer cell line, PANC-1, was obtained from the American Type Culture Collection, ATCC (Manassas, USA). PANC-1, a human pancreatic cancer cell line, was isolated from the pancreatic duct (ATCC, CRL-1469) and was cultured in Dulbecco’s Modified Eagle’s Medium (DMEM) by supplementing 10% fetal bovine serum (FBS) and 1% of penicillin/streptomycin (P/S). Cells were cultured at 37 °C with 5% CO2 in a humidified atmosphere. Cells were maintained in a 75 cm2 tissue culture flask. The medium was replaced every two days. The subcultivation ratio was […]
# Preparation of lysates. PANC-1 cells were seeded in a Petri dishes. After 24 hours, […] were collected and centrifuged at 975 × g at 4 °C for 9 minutes. The supernatant was removed, and the cells were resuspended in a cold PBS buffer. The cells were centrifuged again at 900 × g at 4 °C for 5 minutes.
# The supernatant was removed. Cells were suspended in Halt Protease Inhibitor Cocktail, EDTA-Free (100X) (Thermo Fisher Scientific). The samples were stored for 2 hours at -80°C. The samples were then defrosted and centrifuged at 16 000 × g at 4 °C for 20 minutes. The supernatant was stored at -80 […]
# The inhibitory potency of selected peptides was examined in cell lysate alone or in presence of sunflower trypsin inhibitor (SFTI-1)6 sing furin fluorogenic substrate […] (Pepta Nova, Germany). Furin activity was determined by monitoring the AMC liberation over time with a plate reader. Measurements were performed using 96-well black plates (BRAND, Germany).
# The general procedure was according to.7 In short: 20 µL of cell lysate (diluted 10 times with assay buffer pH 7.5 100 mM HEPES with 1 mM CaCl 2) was added to the well containing 60 µL of water, after 15 min in 37 °C 10 µL of peptide solution (final concentration in well 100 µM) was added. After 30 min incubation in 37 °C 10 µL substrate (100 µM final concentration) was added. […]
# Next step was addition of appropriate peptide solution
# (final concentration in well 100 µM) and 30 min incubation in 37 °C. After this time 10 µL substrate (100 µM final concentration) was added to the well. Percentage inhibition of the enzyme was calculated relative to the control sample without inhibitor.
# Human serum from plasma (Sigma Aldrich, Germany) was prepared for the assay as referred previously.8 The experiments were carried out according to the procedure described before.2 The initial concentration of the peptide solutions was 1.54 mM. Each peptide solution was then diluted 10 times with human serum and incubated at 37 °C. Immediately after the start of incubation, 1, 2, 3, 5 and 24
# [5] = inhibitor 77.0 nM (highest tested concentration)
# T1 sequence (P09958 108-715 limits assumed): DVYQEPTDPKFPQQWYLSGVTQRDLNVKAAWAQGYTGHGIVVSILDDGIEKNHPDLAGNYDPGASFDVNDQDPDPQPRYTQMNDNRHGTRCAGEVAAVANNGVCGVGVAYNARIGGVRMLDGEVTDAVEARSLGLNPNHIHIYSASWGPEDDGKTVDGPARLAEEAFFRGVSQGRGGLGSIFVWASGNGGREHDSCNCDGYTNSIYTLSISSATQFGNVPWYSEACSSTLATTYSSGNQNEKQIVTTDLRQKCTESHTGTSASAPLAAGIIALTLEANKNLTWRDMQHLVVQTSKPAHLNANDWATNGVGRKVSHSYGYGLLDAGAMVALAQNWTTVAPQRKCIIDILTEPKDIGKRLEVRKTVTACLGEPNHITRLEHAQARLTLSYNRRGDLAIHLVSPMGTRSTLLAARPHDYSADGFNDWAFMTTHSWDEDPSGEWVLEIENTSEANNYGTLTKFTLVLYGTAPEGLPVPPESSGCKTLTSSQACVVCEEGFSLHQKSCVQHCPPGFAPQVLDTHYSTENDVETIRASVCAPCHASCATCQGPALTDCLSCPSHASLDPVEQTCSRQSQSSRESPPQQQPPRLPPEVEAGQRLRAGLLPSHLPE
furin activity versus control with no inhibitor added ([1]; inhibitor 2.4 nM),furin activity versus control with no inhibitor added ([1]; inhibitor 24.0 nM),"furin activity versus control with no inhibitor added [1, 5]",times more active than the peptide with Orn at P2 [2],cleaved bond [3],Substance,effect on furin-like activity in PANC-1 cell lysate [4]
97.18%,46.14%,3.72%,,,"&^1Arg-Arg-Cys(&^2)-Lys-Lys-Ser-Ile-Pro-Pro-Ile-Cys(&^2)-Phe&^1 (KKSIPPIC; Arg-Arg-Cys, Phe; head-to-tail cyclised, disulfide; printed: Lys-Lys-Ser-Ile-Pro-Pro-Ile-Cys) [inhibitor 4]",
66.51%,3.98%,0.10%,,,Lys-Arg-Arg-Cys(&)-Lys-Lys-Ser-Ile-Pro-Pro-Ile-Cys(&)-Phe-NH2 [inhibitor 2],
,,,,Arg-AMC,[pGlu]RTKR-{AMC},

# Further lines, the substance ahead of its results:
Substance,furin activity versus control with no inhibitor added ([1]; inhibitor 2.4 nM),furin activity versus control with no inhibitor added ([1]; inhibitor 24.0 nM),"furin activity versus control with no inhibitor added [1, 5]",times more active than the peptide with Orn at P2 [2],cleaved bond [3],effect on furin-like activity in PANC-1 cell lysate [4]
Arg-Arg-Cys(&)-Lys-Lys-Ser-Ile-Pro-Pro-Ile-Cys(&)-Phe-NH2 [inhibitor 1],62.95%,6.02%,0.20%,2–3 times,,
"sunflower trypsin inhibitor 1 [SFTI-1, reference compound]",,,,,,insignificant
